The target in one assay is GSK3alpha (Homo sapiens, UniProt P49840). Put plainly: GSK3alpha assay (same as the GSK3beta assay, 0.25 ng/μl GSK3alpha). Format: biochemical. The conditions noted are these: ranges of pIC50 (−log IC50 (M)), 1 μM ATP, read-out: GSK3a pIC50 (converted). As to the method: (§1) GSK3beta assays were performed at room temperature in a 100 μl reaction volume of 25 mM Tris (pH 7.4) containing 10 mM MgCl2.6H2O, 1 mM DTI, 0.1 mgiml BSA, 5% glycerol and containing 5.7 ng/μl GSK3β, 5 μM biotinylated phosphorylated CREB peptide, 1 μM ATP, 0.85 μCi/ml ATP-P^33 and a suitable amount of a test compound of formula (I). After one hour, the reaction was terminated by adding 70 μl of Stop mix (0.1 mM ATP, 5 mg/ml streptavidin coated PVT SPA bead pH 11.0). The beads to which the phosphorylated CREB peptide is attached were allowed to settle overnight and the radioactivity of the beads was counted in a microtiterplate scintillation counter and compared with the results obtained in a control experiment (without the presence of a test compound) in order to determine the percentage of GSK3β inhibition. The IC50 value, i.e. the concentration (M) of the test compound at which 50% of GSK3β is inhibited, was calculated from the dose response curve obtained by performing the above-described GSK3β assay in the presence of different amounts of the test compound.
The GSK3alpha assay was performed in the same way as described above for the GSK3beta assay except for the concentration of GSK3alpha which is 0.25 ng/μl.

For the next assay, the target named is GSK3β (Homo sapiens, UniProt P49841). Kind of assay: GSK3beta assay (SPA, biotinylated phosphorylated CREB peptide, ATP-P33). The class given is biochemical. Conditions: ranges of pIC50 (−log IC50 (M)); 1 μM ATP, room temperature, one hour; read-out: GSK3b pIC50 (converted). As to the method:
as §1

GSK3alpha, sequence (P49840 whole entry, species assumed): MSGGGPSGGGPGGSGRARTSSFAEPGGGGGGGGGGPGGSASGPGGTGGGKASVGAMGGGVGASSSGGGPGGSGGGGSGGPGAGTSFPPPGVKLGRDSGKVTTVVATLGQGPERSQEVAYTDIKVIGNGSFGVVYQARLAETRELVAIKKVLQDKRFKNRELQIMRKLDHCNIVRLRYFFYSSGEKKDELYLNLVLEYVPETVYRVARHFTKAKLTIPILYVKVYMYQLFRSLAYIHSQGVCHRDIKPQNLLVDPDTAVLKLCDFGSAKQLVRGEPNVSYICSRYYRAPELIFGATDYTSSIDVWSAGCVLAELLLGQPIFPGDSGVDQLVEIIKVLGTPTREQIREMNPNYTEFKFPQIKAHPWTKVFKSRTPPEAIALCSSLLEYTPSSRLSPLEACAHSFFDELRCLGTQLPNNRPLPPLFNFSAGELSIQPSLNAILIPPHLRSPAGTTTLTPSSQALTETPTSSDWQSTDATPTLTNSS
GSK3β, sequence (P49841 whole entry, species assumed): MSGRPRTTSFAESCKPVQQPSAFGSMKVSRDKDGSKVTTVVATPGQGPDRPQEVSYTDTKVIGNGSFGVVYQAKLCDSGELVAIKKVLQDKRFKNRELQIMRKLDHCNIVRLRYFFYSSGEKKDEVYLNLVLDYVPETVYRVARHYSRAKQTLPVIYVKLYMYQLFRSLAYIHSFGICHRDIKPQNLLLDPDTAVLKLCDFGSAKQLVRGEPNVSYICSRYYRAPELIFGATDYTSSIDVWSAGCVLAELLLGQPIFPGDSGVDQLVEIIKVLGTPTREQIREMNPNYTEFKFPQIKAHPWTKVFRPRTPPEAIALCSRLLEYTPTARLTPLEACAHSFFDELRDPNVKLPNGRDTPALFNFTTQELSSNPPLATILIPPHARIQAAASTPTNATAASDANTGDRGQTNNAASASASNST

With `Fc1cccc(-n2nnc3cnc(Nc4cccc(-c5ncc[nH]5)c4)nc32)c1` [Compound 149], the IC50 at GSK3alpha and at GSK3β was below 1e-08 M in each case.

Consider `Fc1cccc(-n2nnc3cnc(Nc4cccc(-c5cncnc5)c4)nc32)c1` [Compound 31], for which, on GSK3β, the IC50 is below 1e-08 M.

As to `Fc1cccc(-n2nnc3cnc(Nc4cccc(-c5cnco5)c4)nc32)c1` [Compound 20], the IC50 on GSK3alpha and on GSK3β was below 1e-08 M in each case.

Regarding `Fc1cccc(-n2nnc3cnc(Nc4cccc(-c5cc[nH]n5)c4)nc32)c1` [Compound 22], the IC50 on GSK3alpha and on GSK3β was below 1e-08 M each time.

`COCCOCc1cccc(-n2nnc3cnc(Nc4ccc(N5CCOCC5)cc4)nc32)c1` [Compound 107]: the IC50 on GSK3β was below 1e-08 M.

In the case of `COCc1cccc(-n2nnc3cnc(Nc4ccc(OCCCN5CCN(C)CC5)cc4)nc32)c1` [Compound 106], the IC50 on GSK3alpha is below 1e-08 M; on GSK3β, 1e-08 M.

For `Fc1cccc(-n2nnc3cnc(Nc4ccc(OCCN5CCOCC5)cc4)nc32)c1` [Compound 141], the results for the IC50 on GSK3alpha and at GSK3β were below 1e-08 M and 1e-08 to 1e-07 M, respectively.

As for `Cn1ccnc1-c1cccc(Nc2ncc3nnn(-c4ccc5c(c4)CCC5)c3n2)c1` [Compound 65], the IC50 at GSK3β was below 1e-08 M.

On to `Cn1cc(Br)c(-c2cccc(Nc3ncc4nnn(-c5cccc(Br)c5)c4n3)c2)n1` [Compound 45], for which the IC50 on GSK3β was 1e-08 to 1e-07 M.

For `Cn1nnnc1-c1cccc(Nc2ncc3nnn(-c4cccc(S(N)(=O)=O)c4)c3n2)c1` [Compound 146], the IC50 on GSK3alpha is below 1e-08 M; on GSK3β it was 1e-08 M.

`COCc1cccc(-n2nnc3cnc(Nc4ccc(CN5CCC(O)CC5)cc4)nc32)c1` [Compound 102]: the IC50 on GSK3alpha and on GSK3β was 1e-08 to 1e-07 M each time.

In the case of `N#CCc1cccc(-n2nnc3cnc(Nc4ccc(C(=O)NCCN5CCOCC5)cc4)nc32)c1` [Compound 92], the IC50 at GSK3alpha and on GSK3β was below 1e-08 M in each case.

As for `CN1CCN(Cc2ccc(Nc3ncc4nnn(-c5cccc(CCO)c5)c4n3)cc2)CC1` [Compound 78], the IC50 at GSK3alpha and on GSK3β was below 1e-08 M throughout.

`COc1cc(-n2nnc3cnc(Nc4cccc(-c5nccn5C)c4)nc32)cc(C(F)(F)F)c1` [Compound 63]: the IC50 at GSK3β is below 1e-08 M.

As for `CN1CCN(CCCOc2ccc(Nc3ncc4nnn(-c5cccc(CC#N)c5)c4n3)cc2)CC1` [Compound 94], the IC50 at GSK3alpha and at GSK3β was below 1e-08 M each time.

As to `CCC(C)n1ncn(-c2ccc(Nc3ncc4nnn(-c5cccc(F)c5)c4n3)cc2)c1=O` (centres unmarked) [Compound 41], the IC50 on GSK3alpha and on GSK3β was 1e-08 to 1e-07 M in each case.

Turning to `COc1cccc(-n2nnc3cnc(Nc4cccc(-c5nccn5C)c4)nc32)c1` [Compound 17], the IC50 at GSK3β was below 1e-08 M.

Take `O=S(=O)(NCCNc1ncccn1)c1cccc(Nc2ncc3nnn(-c4cccc(F)c4)c3n2)c1` [Compound 136]: the IC50 on GSK3alpha and at GSK3β was 1e-08 to 1e-07 M each time.

In the case of `Cn1nccc1-c1cccc(Nc2ncc3nnn(-c4cccc(Br)c4)c3n2)c1` [Compound 8], the IC50 on GSK3alpha is below 1e-08 M; on GSK3β it was above 1e-07 M.

With `NCc1cccc(-n2nnc3cnc(Nc4cccc(-c5cnco5)c4)nc32)c1` [Compound 114], the IC50 at GSK3alpha and on GSK3β was below 1e-08 M in each case.

Regarding `CC(=O)NCc1cccc(-n2nnc3cnc(Nc4cccc(-c5ccnc(N)n5)c4)nc32)c1` [Compound 117], the IC50 on GSK3alpha is below 1e-08 M; at GSK3β it was above 1e-09 M.

In the case of `Brc1cccc(-n2nnc3cnc(Nc4ccc(-c5nnn[nH]5)cc4)nc32)c1` [Compound 52], the IC50 at GSK3alpha and at GSK3β was below 1e-08 M in each case.

Take `COCCOCc1cccc(-n2nnc3cnc(Nc4ccc(OCCCN5CCN(C)CC5)cc4)nc32)c1` [Compound 113]: the IC50 on GSK3alpha was 1e-08 M; on GSK3β it was 1e-08 to 1e-07 M.

For `Fc1cccc(-n2nnc3cnc(Nc4ccc(-c5nn[nH]n5)cc4)nc32)c1` [Compound 138], the IC50 on GSK3alpha and on GSK3β was below 1e-08 M each time.

Regarding `COCc1cccc(-n2nnc3cnc(Nc4ccc(C(=O)NCCN5CCOCC5)cc4)nc32)c1` [Compound 104], the IC50 on GSK3alpha and on GSK3β was below 1e-08 M in each case.

In the case of `Cc1nccc(-c2cccc(Nc3ncc4nnn(-c5cccc(Br)c5)c4n3)c2)n1` [Compound 48], the IC50 at GSK3β is 1e-08 to 1e-07 M.

As for `COCc1cccc(-n2nnc3cnc(Nc4ccc(CN5CCN(C)CC5)cc4)nc32)c1` [Compound 101], the IC50 at GSK3alpha was below 1e-08 M; at GSK3β it was 1e-08 to 1e-07 M.

With `COCc1cccc(-n2nnc3cnc(Nc4ccc(OCCN5CCN(C)CC5)cc4)nc32)c1` [Compound 105], the IC50 on GSK3alpha and on GSK3β was 1e-08 to 1e-07 M each time.

Turning to `O=c1[nH]nc(-c2cccc(Nc3ncc4nnn(-c5cccc(Br)c5)c4n3)c2)[nH]1` [Compound 46], the IC50 is below 1e-08 M at GSK3alpha and 1e-08 to 1e-07 M at GSK3β.

Take `Nc1nccc(-c2cccc(Nc3ncc4nnn(-c5cccc(S(N)(=O)=O)c5)c4n3)c2)n1` [Compound 147]: the IC50 on GSK3alpha and on GSK3β was below 1e-08 M each time.

In the case of `COCCOCc1cccc(-n2nnc3cnc(Nc4ccc(N5CCN(C)CC5)cc4)nc32)c1` [Compound 108], the IC50 on GSK3alpha was 1e-08 to 1e-07 M; at GSK3β, below 1e-08 M.

Turning to `COc1ccc(-n2nnc3cnc(Nc4cccc(-c5nccn5C)c4)nc32)cc1` [Compound 3], the IC50 on GSK3β was below 1e-08 M.

On to `COCc1cccc(-n2nnc3cnc(Nc4cccc(-c5cnco5)c4)nc32)c1` [Compound 98], for which the IC50 on GSK3alpha and on GSK3β was below 1e-08 M in each case.

`CN1CCN(C(=O)c2ccc(Nc3ncc4nnn(-c5cccc(CC#N)c5)c4n3)cc2)CC1` [Compound 91]: the IC50 on GSK3alpha and at GSK3β was below 1e-08 M in each case.

Turning to `c1ccc(-n2nnc3cnc(Nc4ccc(N5CCOCC5)cc4)nc32)cc1` [Compound 11], the IC50 at GSK3alpha and on GSK3β was 1e-08 to 1e-07 M in each case.

As for `CC(C)CC(=O)NCc1cccc(-n2nnc3cnc(Nc4cccc(-c5cnco5)c4)nc32)c1` [Compound 120], the IC50 on GSK3alpha and at GSK3β was 1e-08 to 1e-07 M in each case.

With `Nc1nccc(-c2cccc(Nc3ncc4nnn(-c5cccc(CO)c5)c4n3)c2)n1` [Compound 97], the IC50 on GSK3alpha and at GSK3β was below 1e-08 M in each case.

With `COCCOc1cccc(-n2nnc3cnc(Nc4ccc(OCCN5CCN(C)CC5)cc4)nc32)c1` [Compound 153], on GSK3β, the IC50 is 1e-08 to 1e-07 M.

Regarding `CSc1ccc(-n2nnc3cnc(Nc4cccc(-c5nccn5C)c4)nc32)cc1` [Compound 55], the IC50 at GSK3β was 1e-08 to 1e-07 M.

As for `COCc1cccc(-n2nnc3cnc(Nc4cccc(-c5ccnc(N)n5)c4)nc32)c1` [Compound 100], the IC50 at GSK3alpha and on GSK3β was below 1e-08 M throughout.

Turning to `COCCOc1cccc(-n2nnc3cnc(Nc4ccc(CN5CCN(C)CC5)cc4)nc32)c1` [Compound 131], the IC50 at GSK3alpha and on GSK3β was 1e-08 to 1e-07 M each time.

On to `COCCOCc1cccc(-n2nnc3cnc(Nc4ccc(CN5CCC(O)CC5)cc4)nc32)c1` [Compound 110], for which the IC50 at GSK3alpha and at GSK3β was 1e-08 to 1e-07 M each time.

Regarding `Fc1cccc(-n2nnc3cnc(Nc4ccc(OCCCN5CCOCC5)cc4)nc32)c1` [Compound 144], the IC50 at GSK3alpha was below 1e-08 M; on GSK3β, 1e-08 to 1e-07 M.

With `Cc1ccc(-n2nnc3cnc(Nc4cccc(-c5nccn5C)c4)nc32)cc1Cl` [Compound 60], the IC50 at GSK3β is 1e-08 to 1e-07 M.

With `CC(=O)NCc1cccc(-n2nnc3cnc(Nc4cccc(-c5nnnn5C)c4)nc32)c1` [Compound 116], the IC50 on GSK3alpha and at GSK3β was below 1e-08 M each time.

In the case of `COc1cccc(-n2nnc3cnc(Nc4cccc(-c5nnnn5C)c4)nc32)c1` [Compound 128], the IC50 at GSK3alpha and at GSK3β was below 1e-08 M each time.

`COc1ccc(-n2nnc3cnc(Nc4cccc(-c5nccn5C)c4)nc32)cc1F` [Compound 61]: the IC50 at GSK3β is 1e-08 to 1e-07 M.

As for `CC(=O)N(C)c1ccc(-n2nnc3cnc(Nc4cccc(-c5nccn5C)c4)nc32)cc1` [Compound 57], the IC50 at GSK3β was above 1e-07 M.

As to `Cn1ccnc1-c1cccc(Nc2ncc3nnn(-c4ccc(Br)cc4)c3n2)c1` [Compound 49], the IC50 on GSK3β was 1e-08 to 1e-07 M.

For `Brc1cccc(-n2nnc3cnc(Nc4ccc(-n5cncn5)cc4)nc32)c1` [Compound 51], the IC50 at GSK3β was 1e-08 to 1e-07 M.

Take `Nc1nccc(-c2cccc(Nc3ncc4nnn(-c5cccc(CNC(=O)C6CC6)c5)c4n3)c2)n1` [Compound 119]: the IC50 at GSK3alpha is 1e-08 to 1e-07 M.

With `Fc1cccc(-n2nnc3cnc(Nc4ccc(-n5cccc5)cc4)nc32)c1` [Compound 37], the IC50 on GSK3β was above 1e-07 M.

Turning to `Cc1cccc(-n2nnc3cnc(Nc4cccc(-c5nccn5C)c4)nc32)c1` [Compound 14], the IC50 on GSK3β is below 1e-08 M.

`Cn1ccnc1-c1cccc(Nc2ncc3nnn(-c4ccc(CCO)cc4)c3n2)c1` [Compound 56]: the IC50 on GSK3β is 1e-08 to 1e-07 M.

For the compound `Cn1ccnc1-c1cccc(Nc2ncc3nnn(-c4ccc5cn[nH]c5c4)c3n2)c1` [Compound 148], the IC50 at GSK3β is 1e-08 to 1e-07 M.

On to `O=C(O)c1cc(Nc2ncc3nnn(-c4cccc(F)c4)c3n2)ccc1N1CCOCC1` [Compound 150], for which the IC50 at GSK3alpha is 1e-08 to 1e-07 M.

Turning to `Cn1ccnc1-c1cccc(Nc2ncc3nnn(-c4ccc5c(c4)OCCO5)c3n2)c1` [Compound 66], the IC50 on GSK3β is below 1e-08 M.
